The values that follow come from US20080287445A1, “Prokineticin 2 receptor antagonists” (priority 2005, published 2008).

The target of the experiment is T1, GPR73 (prokineticin 1 receptor) (Homo sapiens, UniProt Q8TCW9).
T1 construct: expressed in transfected cells; host or cells: HEK 293
Nature of the experiment: PK1 functional assay: Ca2+ mobilization screening for PK1 antagonists on the FLIPR. It counts as cell-based. The settings on record: HEK 293 GPR73 cells, multiple values = multiple testing; for inhibition at 10 µM: HEK293, 10 μM compound, read-out: Ca^2+ Mobilization % Inh @ 10 μM; for IC50: PK1 ligand preparation at its EC50, read-out: Ca^2+ Mobilization IC50; for Ca^2+ Mobilization % Inh @ 10 μM: 10 μM compound. The protocol:
At a time of 24 h prior to running the assay, in cell culture media (DMEM containing high Glucose and L-glutamine, 10% FBS, 1% Pen/Streptomycin, 1% Sodium Pyruvate, 20 mM HEPES, Zeocin 200 mg/L), 100 μL of 1.3*10^6/ml HEK 293 GPR73 (prokineticin 1 receptor) expressing cells were plated in a 96 well poly-d-lysine coated plate (Costar), and incubated at 37 C and 5% CO2. On the day in which the assay was run, the media was removed and 200 μL of 5× Calcium Plus Dye (Molecular Devices) which was previously resuspended with 200 mL of assay buffer [HBSS w/Ca^2+ and Mg^2+ w/o phenol red, 20 mM HEPES, 0.1% BSA, 10 mL probenecid (710 mg probenecid in 5 mL of 1N NaOH, to which was then added 5 mL HBSS containing 20 mM HEPES)] was added to each well of the 96-well plate. The plate was incubated at 37 C and 5% CO2 for 30 min in dark. The plate was removed and allowed to reach RT for 15 min in the dark. The assay was then run on the FLIPR. In Brief: base line read for 1 min, compound added (25 μL) and incubated for 4 min, 15 seconds, PK1 ligand preparation added (25 μL) for a final concentration of a previously determined EC50 and fluorescence was counted for 1 min, 45 seconds. Baseline is described as the amount of relative fluorescence read when buffer alone is added to cells. Baseline was subtracted from all wells. Percent of control was calculated as follows:
(Baseline subtracted well value is divided by baseline subtracted max value)*100. Percent inhibition is 100 minus the percent of control value.
The IC50 is defined as the amount of a given compound required to inhibit 50% of the maximum signal that is generated by the concentration of PK1 preparation used in our assay. IC50 values were calculated using GraphPad Prism.

Values joined by “and” are separate entries in the source; they are usually repeats but may differ in a detail not shown here. Equal values may be shown once.

T1 sequence (Q8TCW9 whole entry, species assumed): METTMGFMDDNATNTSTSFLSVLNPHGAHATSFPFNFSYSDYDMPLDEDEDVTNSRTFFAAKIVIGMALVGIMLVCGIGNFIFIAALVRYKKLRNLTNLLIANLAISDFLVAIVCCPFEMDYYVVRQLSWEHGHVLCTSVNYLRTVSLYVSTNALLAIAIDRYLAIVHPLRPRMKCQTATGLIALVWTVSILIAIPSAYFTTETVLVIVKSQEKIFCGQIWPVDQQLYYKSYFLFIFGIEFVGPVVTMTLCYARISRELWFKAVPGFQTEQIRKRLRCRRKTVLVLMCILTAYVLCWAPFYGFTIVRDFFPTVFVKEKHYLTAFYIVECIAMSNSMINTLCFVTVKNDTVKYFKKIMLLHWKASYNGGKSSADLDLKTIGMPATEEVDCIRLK

Regarding `Cc1cnc(CNc2nc(=O)n(Cc3ccc4c(c3)CCO4)c(=O)n2Cc2ccc(OC(F)F)cc2)cn1` [Cpd 261], the inhibition at 10 µM turned out to be 87% and the IC50 stood at 772 nM.
For `Nc1ncccc1CNc1nc(=O)n(Cc2ccc(F)cc2)c(=O)n1Cc1ccc(OC(F)(F)F)cc1` [Cpd 91], the inhibition at 10 µM was found to be 59% and the IC50 is 3980 nM.
For `Nc1cc(Cn2c(=O)nc(NCc3cccnc3N)n(Cc3ccc(OC(F)F)cc3)c2=O)ccc1O` [Cpd 268], the inhibition at 10 µM came to 24% and the IC50 is over 10000 nM.
For the compound `COc1ccc(Cn2c(=O)nc(NCc3cnc(C)cc3C)n(Cc3ccc(OC)cc3F)c2=O)cc1` [Cpd 206], the inhibition at 10 µM turned out to be 102% and the IC50 was determined as 46 nM.
For `COC(=O)c1ccc(Cn2c(=O)nc(NCc3cnc(C)cc3C)n(Cc3ccc(OC(F)F)cc3)c2=O)cc1` [Cpd 165], the inhibition at 10 µM turned out to be 52% and the IC50 was found to be 6150 nM.
For `Cc1cc(C)c(CNc2nc(=O)n(Cc3ccc(O)cc3)c(=O)n2Cc2ccc(OC(F)F)cc2)cn1` [Cpd 181], the inhibition at 10 µM amounted to 61% and the IC50 is 3730 nM.
For `Cc1cc(C)c(CNc2nc(=O)n(Cc3ccc4c(c3)OCCO4)c(=O)n2Cc2ccc(OC(F)F)cc2)cn1` [Cpd 210], the inhibition at 10 µM came to 39% and the IC50 is over 10000 nM.
On to `COc1ccc(Cn2c(NCc3cccnc3N)nc(=O)n(Cc3ccc(-n4cccn4)cc3)c2=O)cc1` [Cpd 90], for which the inhibition at 10 µM came to 71% and the IC50 is 2330 nM.
With `COc1ccc(Cn2c(=O)nc(NCc3cnc(C)cc3C)n(Cc3cccc4[nH]ccc34)c2=O)cc1` [Cpd 139], the “Ca^2+ Mobilization % Inh @ 10 μM” value was 97% and 100%; the inhibition at 10 µM was found to be 92%.
Turning to `COc1ccc(Cn2c(NCc3cnc(C)cc3C)nc(=O)n(Cc3ccc(OC(F)F)cc3)c2=O)cc1` [Cpd 83], the inhibition at 10 µM worked out at 82% and the IC50 stood at 668 nM.
On to `Cc1cc(COCc2ccccc2)c(CNc2nc(=O)n(Cc3ccc4c(c3)CCO4)c(=O)n2Cc2ccc(OC(F)F)cc2)c(N)n1` [Cpd 270, 6-[(2-Amino-4-benzyloxymethyl-6-methyl-pyridin-3-ylmethyl)-amino]-1-(4-difluoromethoxy-benzyl)-3-(2,3-dihydro-benzofuran-5-ylmethyl)-1H-[1,3,5]triazine-2,4-dione], for which the inhibition at 10 µM turned out to be 12% and the IC50 was over 10000 nM.
For the compound `CCNc1ncccc1CNc1nc(=O)n(Cc2ccc(F)cc2)c(=O)n1Cc1ccc(OC)cc1` [Cpd 19], the inhibition at 10 µM amounted to 83% and the IC50 is 885 nM.
For the compound `COc1ccc(Cn2c(=O)nc(NCc3cnc(C)cc3C)n(Cc3ccc4c(c3)CCO4)c2=O)cc1` [Cpd 128], the “Ca^2+ Mobilization % Inh @ 10 μM” value is 98%; the inhibition at 10 µM is 93%; the IC50 is 126 nM and 214 nM.
As for `COc1ccc(Cn2c(=O)nc(NCc3cnc(C)cc3C)n(Cc3ccc(S(C)(=O)=O)cc3)c2=O)cc1` [Cpd 132], the inhibition at 10 µM is 79% and the half-inhibitory concentration (IC50) is 247 nM.
On to `COCCCCCn1c(NCc2c(C)cc(C)nc2N)nc(=O)n(Cc2ccccc2)c1=O` [Cpd 254], for which the inhibition at 10 µM came out at 96% and the IC50 was found to be 98 nM.
On to `COc1ccc(Cn2c(=O)nc(NCc3cnc(C)cc3C)n(CC3CCC(OC)CC3)c2=O)cc1` (stereo not shown) [Cpd 150], for which the inhibition at 10 µM is 78% and the IC50 is 595 nM.
The like results for `COc1ccc(Cn2c(=O)nc(NCc3cnc(C)cc3C)n(Cc3ccc(SC)cc3)c2=O)cc1` [Cpd 100] were, in that order, 62% and 533 nM.
Take `Cc1cc(C)c(CNc2nc(=O)n(Cc3ccc(OC(F)F)cc3)c(=O)n2Cc2ccc(OC(F)F)cc2)cn1` [Cpd 163]: the inhibition at 10 µM was found to be 38% and the IC50 is over 10000 nM.
In the same order, the values of `COc1ccc(Cn2c(CCc3ccccn3)cc(=O)n(Cc3ccc(OC)cc3)c2=O)cc1` [Cpd 187] are 41% and over 10000 nM.
Take `COc1ccc(Cn2c(NCc3cccnc3N)nc(=O)n(CC3COc4ccccc4O3)c2=O)cc1` (stereo not shown) [Cpd 120]: the inhibition at 10 µM came to 40% and the IC50 is over 10000 nM.
On to `COc1ccc(Cn2c(NCCc3cccnc3N)nc(=O)n(Cc3ccc(F)cc3)c2=O)cc1` [Cpd 10], for which the inhibition at 10 µM was 82% and the IC50 came out at 1250 nM.
In the case of `COCCCCCn1c(NCc2c(C)cc(C)nc2N)nc(=O)n(Cc2ccc(Cl)cc2)c1=O` [Cpd 253], the inhibition at 10 µM stood at 97% and the IC50 came to 9 nM.
For the compound `CCCCCCn1c(NCc2cccnc2N)nc(=O)n(Cc2ccc(OC)cc2)c1=O` [Cpd 79], the inhibition at 10 µM came to 85% and the IC50 turned out to be 679 nM.
As to `COc1ccc(Cn2c(=O)nc(NCc3cccnc3N)n(Cc3ccc(OC(C)(C)C)cc3)c2=O)cc1` [Cpd 135], the inhibition at 10 µM stood at 94% and the IC50 amounted to 186 nM.
In the case of `Cc1cc(C)c(CNc2nc(=O)n(Cc3ccc(C(N)=O)cc3)c(=O)n2Cc2ccc(OC(F)F)cc2)cn1` [Cpd 194], the inhibition at 10 µM was determined as 49% and the IC50 turned out to be 6220 nM.
`COc1ccc(Cn2c(NCc3ccc(-c4ccc(F)cc4)nc3)nc(=O)n(Cc3ccc(OC)cc3)c2=O)cc1` [Cpd 25]: the inhibition at 10 µM was 89% and the IC50 turned out to be 2740 nM.
As to `COc1ccc(Cn2c(=O)nc(NCc3cccnc3N)n(Cc3cccc(OC(F)(F)F)c3)c2=O)cc1` [Cpd 98], the inhibition at 10 µM is 77% and the IC50 is 736 nM.
For `COc1ccc(Cn2c(NCc3c(COCc4ccccc4)cc(C)nc3N)nc(=O)n(Cc3ccc(OC)cc3)c2=O)cc1` [Cpd 250], the inhibition at 10 µM stood at 48% and the IC50 came out at 8630 nM.
In the case of `COc1ccc(Cn2c(NCc3cccnc3N3CCSCC3)nc(=O)n(Cc3ccc(F)cc3)c2=O)cc1` [Cpd 18], the inhibition at 10 µM is 58% and the IC50 was 5480 nM.
The like results for `COc1ccc(Cn2c(NCc3cccnc3N)nc(=O)n(Cc3ccccc3)c2=O)cc1` [Cpd 43] were, in that order, 78% and 801 nM.
As for `COc1ccc(Cn2c(NCc3cccnc3N)nc(=O)n(Cc3ccc4occc4c3)c2=O)cc1` [Cpd 134], the inhibition at 10 µM stood at 86% and the IC50 amounted to 225 nM.
For `COc1ccc(Cn2c(NCc3cccnc3N)nc(=O)n(Cc3ccc4[nH]ccc4c3)c2=O)cc1` [Cpd 230], the inhibition at 10 µM worked out at 66% and the IC50 turned out to be 2750 nM.
For `C=CCC(c1ccc(OC)cc1)n1c(=O)nc(NCc2cccnc2N)n(Cc2ccc(OC)cc2)c1=O` (stereo not shown) [Cpd 48], the inhibition at 10 µM worked out at 75% and the IC50 was determined as 956 nM.
On to `COc1ccc(Cn2c(CCc3cccnc3)cc(=O)n(Cc3ccc(OC)cc3)c2=O)cc1` [Cpd 169], for which the “Ca^2+ Mobilization % Inh @ 10 μM” value is 86%; the inhibition at 10 µM was 78%; the IC50 is 226 nM and 973 nM.
In the case of `COc1ccc(Cn2c(OCc3cccnc3)cc(=O)n(Cc3ccc(OC)cc3)c2=O)cc1` [Cpd 121, 1,3-Bis-(4-methoxy-benzyl)-6-(pyridin-3-ylmethoxy)-1H-pyrimidine-2,4-dione], the inhibition at 10 µM is 58% and the IC50 amounted to 6330 nM.
The like results for `COc1ccc(Cn2c(=O)nc(NCc3cnc(C)cc3C)n(Cc3ccc(OC)nc3)c2=O)cc1` [Cpd 104] were, in that order, 96% and 193 nM.
`COc1ccc(Cn2c(NCc3cc(C(F)(F)F)ccn3)nc(=O)n(Cc3ccc(OC)cc3)c2=O)cc1` [Cpd 237]: the inhibition at 10 µM was 69% and the IC50 worked out at 1680 nM.
